# Patent US20030161787A1, “Method for the identification of agents and genes influencing cardiovascular function” (priority 2000, published 2003)
# What was measured:
# [1] = test system: three-day old zebrafish larvae; assay: Induction of arrhythmic heart beat in three-day old zebrafish larvae by arrhythmia-inducing drugs; settings: low doses in medium; anaesthetized larvae, dissecting microscope
# [2] = molecular target: HERG (human ether-a-gogo-related gene) (Homo sapiens, UniProt Q12809); settings: cited from earlier work
# HERG (human ether-a-gogo-related gene), sequence (Q12809 whole entry): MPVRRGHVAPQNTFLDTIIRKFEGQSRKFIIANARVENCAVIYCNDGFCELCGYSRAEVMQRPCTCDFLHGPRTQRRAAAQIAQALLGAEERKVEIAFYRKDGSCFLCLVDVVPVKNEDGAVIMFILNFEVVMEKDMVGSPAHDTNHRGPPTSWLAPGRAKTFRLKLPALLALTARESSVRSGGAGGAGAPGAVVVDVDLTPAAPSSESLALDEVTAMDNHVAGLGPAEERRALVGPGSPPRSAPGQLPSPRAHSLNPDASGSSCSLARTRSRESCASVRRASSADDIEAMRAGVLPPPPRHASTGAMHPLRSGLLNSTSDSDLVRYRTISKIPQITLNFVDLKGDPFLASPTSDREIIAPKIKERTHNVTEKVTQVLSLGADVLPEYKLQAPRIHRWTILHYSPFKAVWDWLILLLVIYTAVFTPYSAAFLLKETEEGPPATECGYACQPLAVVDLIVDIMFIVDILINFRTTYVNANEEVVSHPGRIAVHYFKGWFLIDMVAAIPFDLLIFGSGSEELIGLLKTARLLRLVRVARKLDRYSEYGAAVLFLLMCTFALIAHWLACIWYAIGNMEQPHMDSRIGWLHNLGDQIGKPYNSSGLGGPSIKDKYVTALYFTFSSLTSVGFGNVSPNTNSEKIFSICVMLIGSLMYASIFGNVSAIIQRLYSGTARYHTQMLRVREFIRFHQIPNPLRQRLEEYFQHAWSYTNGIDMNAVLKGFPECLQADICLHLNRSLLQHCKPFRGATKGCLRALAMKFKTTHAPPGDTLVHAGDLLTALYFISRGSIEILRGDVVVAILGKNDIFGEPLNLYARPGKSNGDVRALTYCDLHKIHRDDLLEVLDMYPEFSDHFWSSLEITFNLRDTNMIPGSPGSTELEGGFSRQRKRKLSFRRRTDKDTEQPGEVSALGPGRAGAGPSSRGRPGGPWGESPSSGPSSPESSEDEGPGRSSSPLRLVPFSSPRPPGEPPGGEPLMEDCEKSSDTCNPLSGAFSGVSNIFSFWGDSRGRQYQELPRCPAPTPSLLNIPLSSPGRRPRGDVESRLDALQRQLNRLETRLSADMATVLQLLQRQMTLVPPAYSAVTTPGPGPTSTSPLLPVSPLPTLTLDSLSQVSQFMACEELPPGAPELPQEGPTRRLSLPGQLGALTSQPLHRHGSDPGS
# zebrafish larvae = assay: Zebrafish larvae bathed in drug-containing medium; heart beat rate, contractility and blood flow monitored by microscope; assay type: in vivo; settings: for effect on heart beat rate, contractility and blood flow: drug added to bathing medium, 2 d old larvae, 100 μM (FIG. 1) or increasing concentrations (FIG. 2); for effect on heart beat rate, contractility and blood flow (cardiac performance) of untreated fish: applied alone to the surrounding medium, 4 d old larvae (FIG. 4)
# Protocol: About 50 zebrafish larvae were incubated for 2-7 d at 22-28° C. in petri dishes filled with 30 ml embryo medium.
# (§1) At the day of the experiment 10 larvae were transferred to small petri dishes filled with 10 ml embryo medium, 0.5 ml MESAB solution and 10 μl of the respective drug (or +10 μl of a second drug) added from a 1000-fold stock solution prepared with DMSO, these three components were previously mixed in 50 ml plastic tubes (controls only receive 10 μl DMSO).
# (§2) At certain time points the contractility of the heart and blood flow was monitored, and the heart rate was determined by counting the heart beat with the aid of a stereo-microscope.
# [3] = test system: nifedipine-treated zebrafish; assay: Reversal of nifedipine-induced effects on the heart of zebrafish larvae by a second drug; assay type: in vivo
# Protocol: Similarely, putative anti-arrhythmic agents can be identified by studying heart beats of teleost larvae which were bathed prior to or simultaneous with the addition of the agents in a solution of an arrhythmia-inducing drug.
# as §1, §2
compound,measurement,setting,value
CC(C)(C)c1ccc(C(O)CCCN2CCC(C(O)(c3ccccc3)c3ccccc3)CC2)cc1 (stereo not shown) [terfenadine],larvae with induced arrhythmic heart beat,[1],~100 % of larvae
COc1cc(N)c(Cl)cc1C(=O)NC1CCN(CCCOc2ccc(F)cc2)CC1OC (stereo not shown) [cisapride],block of HERG,[2],high affinity block
same,larvae with induced arrhythmic heart beat,[1],~100 % of larvae
O=C(CCCN1CC=C(n2c(=O)[nH]c3ccccc32)CC1)c1ccc(F)cc1 [droperidol],larvae with induced arrhythmic heart beat,[1],~100 % of larvae
COc1ccc(CCN(C)CCCC(C#N)(c2ccc(OC)c(OC)c2)C(C)C)cc1OC (stereo not shown) [verapamil],"effect on heart beat rate, contractility and blood flow",zebrafish larvae,"decrease in heart beat rate, contractility and blood flow"
O=c1[nH]c2ccccc2n1C1CCN(CCCC(c2ccc(F)cc2)c2ccc(F)cc2)CC1 [pimozide],larvae with induced arrhythmic heart beat,[1],~100 % of larvae
O=C(CCCN1CCC(O)(c2ccc(Cl)cc2)CC1)c1ccc(F)cc1 [haloperidol],block of HERG,[2],high affinity block
same,larvae with induced arrhythmic heart beat,[1],~100 % of larvae
CSc1ccc2c(c1)N(CCC1CCCCN1C)c1ccccc1S2 (stereo not shown) [thioridazine],larvae with induced arrhythmic heart beat,[1],~100 % of larvae
"COC(=O)C1=C(C)NC(C)=C([N+](=O)[O-])C1c1ccccc1C(F)(F)F (racemic) [Bay K 8644, 1,4-dihydro-2,6-dimethyl-5-nitro-4-[2′-(trifluoromethyl)phenyl]-3-pyridinecarboxylic acid methyl ester]","effect on heart beat rate, contractility and blood flow (cardiac performance) of untreated fish",zebrafish larvae,nearly negligible effects
same,"effect on heart beat rate, contractility and blood flow (cardiac performance) of untreated fish",zebrafish larvae; listed as (+/−)Bay K 8644,nearly no effect
same,re-animation of larvae with arrest of the heart beat,"[3]; arrest induced by 50 μM nifedipine for 1 h, added to bathing solution, 3 d old larvae (FIG. 5)",re-animated within minutes
same,contractility of nifedipine-treated zebrafish,[3]; nifedipine-treated larvae (FIG. 3),strong increase in contractility
same,blocking of the effects of nifedipine,"[3]; simultaneous addition with nifedipine, 4 d old larvae (FIG. 3)",completely blockable
CC(C)NCC(O)COc1cccc2ccccc12 (stereo not shown) [propanolol],"effect on heart beat rate, contractility and blood flow",zebrafish larvae,"decrease in heart beat rate, contractility and blood flow"
COc1ccc(CCN2CCC(Nc3nc4ccccc4n3Cc3ccc(F)cc3)CC2)cc1 [astemizole],larvae with induced arrhythmic heart beat,[1],~100 % of larvae
